Molecules are shown by their SMILES.

From ChEMBL document CHEMBL1135773, “Purine and pyrimidine (P2) receptors as drug targets” (J Med Chem, 2002) come the findings set out here.

One assay deals with P2Y purinoceptor 6 (Homo sapiens, UniProt Q15077). The assay is described as follows: The compound was evaluated for agonist activity against phospholipase C coupled recombinant human P2Y purinoceptor 6 (P2Y6). It is filed as functional. The following applies: concentration not given here.
A further assay deals with T1, P2X purinoceptor 4 (Rattus norvegicus, UniProt P51577).
T1 sequence (P51577 whole entry): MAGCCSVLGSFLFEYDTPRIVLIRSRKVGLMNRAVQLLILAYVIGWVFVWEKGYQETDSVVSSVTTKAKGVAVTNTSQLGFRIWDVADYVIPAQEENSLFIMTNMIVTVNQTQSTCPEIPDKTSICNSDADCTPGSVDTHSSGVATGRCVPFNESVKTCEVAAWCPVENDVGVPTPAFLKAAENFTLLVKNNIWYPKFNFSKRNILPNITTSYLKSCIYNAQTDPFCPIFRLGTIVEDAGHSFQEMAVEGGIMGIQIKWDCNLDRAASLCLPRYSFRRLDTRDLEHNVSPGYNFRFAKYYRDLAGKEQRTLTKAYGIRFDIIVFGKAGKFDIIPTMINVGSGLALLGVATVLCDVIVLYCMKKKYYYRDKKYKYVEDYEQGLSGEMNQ
The assay is described as follows: Antagonist activity against recombinant rat P2X purinoceptor 4 (P2X4) at 3 uM, expressed in Xenopus oocytes. It is filed as functional, cell-based, Oocyte.

Assay [1] addresses T2, P2X purinoceptor 1 (Rattus norvegicus, UniProt P47824).
T2 sequence (P47824 whole entry): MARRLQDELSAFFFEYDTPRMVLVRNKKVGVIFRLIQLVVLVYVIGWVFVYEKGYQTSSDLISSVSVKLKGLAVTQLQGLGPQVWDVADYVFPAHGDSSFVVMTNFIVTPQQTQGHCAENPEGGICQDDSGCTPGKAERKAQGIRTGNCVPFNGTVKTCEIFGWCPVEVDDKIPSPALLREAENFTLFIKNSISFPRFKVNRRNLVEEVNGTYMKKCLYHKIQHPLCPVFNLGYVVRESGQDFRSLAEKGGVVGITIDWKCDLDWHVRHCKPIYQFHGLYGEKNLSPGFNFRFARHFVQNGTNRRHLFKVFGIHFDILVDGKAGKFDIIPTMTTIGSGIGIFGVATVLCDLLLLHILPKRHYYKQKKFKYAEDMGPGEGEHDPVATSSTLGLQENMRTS
The assay can be described thus: The compound was evaluated for antagonist activity against recombinant rat P2X purinoceptor 1 (P2X1) at 1 uM, expressed in Xenopus oocytes. It is filed as functional, cell-based, Oocyte.

In a further assay the target is P2Y purinoceptor 4 (Homo sapiens, UniProt P51582). The assay is described as follows: The compound was evaluated for antagonist activity against phospholipase C coupled recombinant human P2Y purinoceptor 4 (P2Y4). It is filed as functional.
P2Y purinoceptor 4, sequence (P51582 whole entry): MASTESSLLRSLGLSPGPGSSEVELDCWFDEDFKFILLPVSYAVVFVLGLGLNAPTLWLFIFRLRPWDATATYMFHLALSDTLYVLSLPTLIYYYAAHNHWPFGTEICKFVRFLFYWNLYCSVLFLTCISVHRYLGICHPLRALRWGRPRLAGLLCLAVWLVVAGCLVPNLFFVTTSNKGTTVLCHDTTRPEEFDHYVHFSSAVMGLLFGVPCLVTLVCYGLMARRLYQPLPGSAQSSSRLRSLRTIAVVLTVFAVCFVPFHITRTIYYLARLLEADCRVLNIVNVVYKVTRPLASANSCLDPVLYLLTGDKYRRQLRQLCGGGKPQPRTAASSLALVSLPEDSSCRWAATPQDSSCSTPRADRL
The next assay has as its target P2X purinoceptor 6 (Rattus norvegicus, UniProt P51579). The assay is described as follows: Antagonist activity against recombinant rat P2X purinoceptor 6 (P2X6 ). It counts as functional.
The target of the next assay is P2Y purinoceptor 12 (Rattus norvegicus, UniProt Q9EPX4). The assay is described as follows: Antagonist activity against phospholipase C coupled rat P2Y purinoceptor 12 (P2Y12). It is filed as functional.
P2Y purinoceptor 12, sequence (Q9EPX4 whole entry): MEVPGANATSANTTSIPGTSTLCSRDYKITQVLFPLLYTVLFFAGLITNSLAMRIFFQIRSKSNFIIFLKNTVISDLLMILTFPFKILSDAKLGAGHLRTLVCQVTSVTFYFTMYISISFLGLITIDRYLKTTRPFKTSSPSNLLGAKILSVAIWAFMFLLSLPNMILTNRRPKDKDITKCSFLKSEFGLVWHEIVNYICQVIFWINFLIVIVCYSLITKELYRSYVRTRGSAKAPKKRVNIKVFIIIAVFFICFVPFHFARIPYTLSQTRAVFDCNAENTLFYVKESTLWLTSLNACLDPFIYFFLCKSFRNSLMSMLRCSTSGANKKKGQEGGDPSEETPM
Assay [2] deals with T3, P2Y purinoceptor 1 (Homo sapiens, UniProt P47900). The assay can be described thus: Evaluated for agonist activity against phospholipase C coupled P2Y purinoceptor 1 (P2Y1) of human erythrocytes. It is filed as functional.
T3 sequence (P47900 whole entry): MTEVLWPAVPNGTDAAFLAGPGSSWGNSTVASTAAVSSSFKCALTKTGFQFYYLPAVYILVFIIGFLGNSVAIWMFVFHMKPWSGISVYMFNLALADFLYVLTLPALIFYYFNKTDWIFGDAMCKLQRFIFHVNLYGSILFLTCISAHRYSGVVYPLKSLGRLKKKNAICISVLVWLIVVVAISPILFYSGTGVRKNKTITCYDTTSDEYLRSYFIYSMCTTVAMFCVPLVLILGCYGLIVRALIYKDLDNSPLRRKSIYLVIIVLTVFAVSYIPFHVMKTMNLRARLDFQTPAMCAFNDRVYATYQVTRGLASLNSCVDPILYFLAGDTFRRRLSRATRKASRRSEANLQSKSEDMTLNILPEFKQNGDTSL
Assay [3] concerns the target P2Y purinoceptor 1 (Rattus norvegicus) (UniProt P49651). The assay is described as follows: Evaluated for agonist activity against phospholipase C coupled P2Y purinoceptor 1 (P2Y1) of rat erythrocytes.
The next assay addresses T4, P2X purinoceptor 2 (Rattus norvegicus, UniProt P49653).
T4 sequence (P49653 whole entry): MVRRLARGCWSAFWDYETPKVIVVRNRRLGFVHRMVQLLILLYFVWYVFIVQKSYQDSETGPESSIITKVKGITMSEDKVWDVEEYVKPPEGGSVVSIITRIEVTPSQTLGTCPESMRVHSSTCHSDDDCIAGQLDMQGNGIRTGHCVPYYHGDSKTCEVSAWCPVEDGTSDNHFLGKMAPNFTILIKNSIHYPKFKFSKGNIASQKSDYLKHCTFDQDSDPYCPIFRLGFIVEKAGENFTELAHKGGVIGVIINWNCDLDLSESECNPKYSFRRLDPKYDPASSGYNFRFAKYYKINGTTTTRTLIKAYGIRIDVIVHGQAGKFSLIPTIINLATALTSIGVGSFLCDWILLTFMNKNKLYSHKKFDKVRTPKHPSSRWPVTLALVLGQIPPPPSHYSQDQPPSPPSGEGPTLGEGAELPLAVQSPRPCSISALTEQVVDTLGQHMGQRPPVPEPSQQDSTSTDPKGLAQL
The assay can be described thus: The compound was evaluated for antagonist activity against recombinant rat receptor P2X purinoceptor 2 (P2X2) at 30 uM, expressed in Xenopus oocytes. It is filed as functional, cell-based, Oocyte.

In another assay the target is P2X purinoceptor 7 (Rattus norvegicus, UniProt Q64663). The assay is described as follows: The compound was evaluated for antagonist activity against recombinant rat P2X purinoceptor 7 (P2X7). It counts as functional.
P2X purinoceptor 7, sequence (Q64663 whole entry): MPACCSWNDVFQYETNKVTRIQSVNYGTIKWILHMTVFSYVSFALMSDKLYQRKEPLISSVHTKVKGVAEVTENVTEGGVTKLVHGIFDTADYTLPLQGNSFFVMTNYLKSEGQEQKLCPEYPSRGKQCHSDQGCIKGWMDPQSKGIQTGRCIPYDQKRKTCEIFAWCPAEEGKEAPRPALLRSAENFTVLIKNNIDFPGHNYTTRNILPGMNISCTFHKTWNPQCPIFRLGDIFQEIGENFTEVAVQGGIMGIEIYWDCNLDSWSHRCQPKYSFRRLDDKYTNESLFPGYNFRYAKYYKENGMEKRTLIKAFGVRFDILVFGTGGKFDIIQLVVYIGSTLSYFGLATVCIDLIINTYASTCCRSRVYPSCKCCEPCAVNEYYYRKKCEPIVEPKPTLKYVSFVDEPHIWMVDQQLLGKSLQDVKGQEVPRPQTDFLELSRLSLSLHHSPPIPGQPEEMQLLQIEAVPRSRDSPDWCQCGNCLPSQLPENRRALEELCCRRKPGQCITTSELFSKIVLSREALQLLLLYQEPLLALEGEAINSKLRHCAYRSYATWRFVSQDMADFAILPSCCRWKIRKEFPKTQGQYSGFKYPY
Another assay has as its target T5, P2X purinoceptor 5 (Rattus norvegicus, UniProt P51578).
T5 sequence (P51578 whole entry): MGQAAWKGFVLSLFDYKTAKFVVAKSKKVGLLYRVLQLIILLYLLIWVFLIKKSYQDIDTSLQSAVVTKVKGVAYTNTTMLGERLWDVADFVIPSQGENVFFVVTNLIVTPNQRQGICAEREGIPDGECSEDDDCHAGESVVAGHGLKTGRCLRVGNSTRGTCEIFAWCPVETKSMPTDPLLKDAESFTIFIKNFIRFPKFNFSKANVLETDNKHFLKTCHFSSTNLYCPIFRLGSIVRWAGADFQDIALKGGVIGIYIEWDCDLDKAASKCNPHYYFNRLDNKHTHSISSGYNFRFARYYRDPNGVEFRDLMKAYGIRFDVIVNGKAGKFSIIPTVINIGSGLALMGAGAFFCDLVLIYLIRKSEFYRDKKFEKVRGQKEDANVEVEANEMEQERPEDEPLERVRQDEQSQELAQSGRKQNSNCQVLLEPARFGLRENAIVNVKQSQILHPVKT
The assay is described as follows: Antagonist activity against recombinant rat P2X purinoceptor 5 (P2X5). It counts as functional.

The target in a further assay is P2Y purinoceptor 2 (Homo sapiens, UniProt P41231). The assay is described as follows: Evaluated for agonist activity against phospholipase C coupled recombinant human P2Y purinoceptor 2 (P2Y2). It is filed as functional.
P2Y purinoceptor 2, sequence (P41231 whole entry): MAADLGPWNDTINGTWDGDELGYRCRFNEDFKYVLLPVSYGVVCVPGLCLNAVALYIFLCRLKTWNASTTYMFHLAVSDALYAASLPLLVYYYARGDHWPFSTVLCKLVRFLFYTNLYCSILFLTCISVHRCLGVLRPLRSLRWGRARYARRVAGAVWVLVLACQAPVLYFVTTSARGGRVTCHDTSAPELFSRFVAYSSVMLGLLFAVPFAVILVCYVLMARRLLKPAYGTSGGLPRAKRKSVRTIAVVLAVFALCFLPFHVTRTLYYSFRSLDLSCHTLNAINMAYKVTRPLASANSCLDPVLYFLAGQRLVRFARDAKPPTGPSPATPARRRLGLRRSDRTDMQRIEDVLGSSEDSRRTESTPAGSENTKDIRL
The target in assay [4] is T3, P2Y purinoceptor 1. The assay is described as follows: Dissociation constant at P2Y purinoceptor 1 (P2Y1) from guinea pig taenia coli. The arrangement: species or system Cavia porcellus. The following applies: target entry is the homologue from another species.
Assay [5] addresses T2, P2X purinoceptor 1. The assay is described as follows: The compound was evaluated for antagonist activity against P2X purinoceptor 1 (P2X1) from rat vas deferens. It is filed as functional.

P2Y purinoceptor 6, sequence (Q15077 whole entry): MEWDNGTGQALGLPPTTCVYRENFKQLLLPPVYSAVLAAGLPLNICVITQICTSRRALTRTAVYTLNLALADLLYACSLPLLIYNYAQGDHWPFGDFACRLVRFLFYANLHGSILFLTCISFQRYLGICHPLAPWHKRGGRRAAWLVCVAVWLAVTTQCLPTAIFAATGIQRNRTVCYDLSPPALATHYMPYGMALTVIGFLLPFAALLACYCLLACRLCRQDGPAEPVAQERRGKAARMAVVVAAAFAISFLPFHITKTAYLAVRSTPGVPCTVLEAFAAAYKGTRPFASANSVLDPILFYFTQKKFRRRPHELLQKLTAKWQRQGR
P2X purinoceptor 6, sequence (P51579 whole entry): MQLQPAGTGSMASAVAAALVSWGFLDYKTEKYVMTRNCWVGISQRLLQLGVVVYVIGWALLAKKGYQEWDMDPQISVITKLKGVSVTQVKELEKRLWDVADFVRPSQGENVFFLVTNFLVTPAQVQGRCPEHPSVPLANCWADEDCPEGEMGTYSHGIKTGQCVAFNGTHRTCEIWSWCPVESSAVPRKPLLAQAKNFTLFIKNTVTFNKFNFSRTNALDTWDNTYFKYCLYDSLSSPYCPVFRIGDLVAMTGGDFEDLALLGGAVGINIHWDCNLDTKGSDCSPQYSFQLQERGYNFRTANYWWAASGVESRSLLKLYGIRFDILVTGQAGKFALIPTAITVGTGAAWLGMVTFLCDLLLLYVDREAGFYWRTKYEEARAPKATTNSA
P2Y purinoceptor 1 (Rattus norvegicus), sequence (P49651 whole entry, looked up): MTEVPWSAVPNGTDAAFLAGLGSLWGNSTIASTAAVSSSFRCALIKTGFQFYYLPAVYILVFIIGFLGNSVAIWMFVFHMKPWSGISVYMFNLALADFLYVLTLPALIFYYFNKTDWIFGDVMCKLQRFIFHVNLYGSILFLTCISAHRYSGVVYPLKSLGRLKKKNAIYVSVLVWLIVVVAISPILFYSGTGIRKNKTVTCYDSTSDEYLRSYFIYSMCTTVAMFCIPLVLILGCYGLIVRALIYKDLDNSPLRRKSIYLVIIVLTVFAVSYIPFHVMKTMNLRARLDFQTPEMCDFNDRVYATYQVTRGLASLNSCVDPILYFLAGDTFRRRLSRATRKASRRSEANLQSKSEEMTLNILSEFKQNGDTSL

As to `Cc1nc(/N=N/c2ccc(S(=O)(=O)O)cc2S(=O)(=O)O)c(COP(=O)(O)O)c(C=O)c1O`, the inhibition (as a rule, the percentage by which the read-out fell short of the control) on P2Y purinoceptor 6 is 69%. Besides, the concentration for a half-maximal effect (EC50) (commonly the concentration needed to bring the measured effect to its halfway point) was above 10 µM at P2X purinoceptor 4; 0.099 µM at P2X purinoceptor 1 [1]; above 10 µM at P2Y purinoceptor 4; above 100 µM at P2X purinoceptor 6; above 100 µM at P2Y purinoceptor 12; 1 µM at P2Y purinoceptor 1 [2]. In addition, the EC50 in assay [3] was 18.2 µM; at P2X purinoceptor 2 it was 12 µM; at P2X purinoceptor 7 it was 62 µM; on P2X purinoceptor 5 it was 2.6 µM; at P2Y purinoceptor 2, above 10 µM.

Take `C=CS(=O)(=O)c1cccc(Nc2cc(S(=O)(=O)O)c(N)c3c2C(=O)c2ccccc2C3=O)c1` [UNIBLUE A]: the dissociation constant (Kd) (commonly the free concentration of one partner at which half of the binding sites on the other are occupied at equilibrium, for simple one-to-one binding) at P2Y purinoceptor 1 [4] is above 100 µM. For the same compound, the IC50 (as a rule, the concentration that inhibits the measured activity by half) against P2X purinoceptor 1 [5] came out at 7.5 µM.
